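These data come from cells grown in 96-well plates and exposed to compound for 48 hours at five concentrations. The concentration for 50% growth inhibition is given as GI50.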 Activity calls are given as the source filed them. Rule as the data show it: active = GI50 up to about 1.1 µM and inactive = higher.

Among the test systems are SW-620; UACC-257; SF-295; SK-MEL-5; DLD-1; SR; LOX IMVI; UO-31; K562; XF498; HOP-92; ACHN; M19-MEL; NCI-H460; A498; MCF7; RPMI-8226; NCI-H226.
Common to all, as to assay: NCI-60 cell line screen, 48 h

For `COC1C=CC(O)C(CO)O1` (centres undefined), the GI50 with SW-620, with UACC-257, in the test on SF-295, with SK-MEL-5, in the test on DLD-1 and in the test with SR was > 100 µM (inactive) each time. Besides, the GI50 in the test on LOX IMVI, in the test with UO-31, with K562, in the test with XF498, in the test on HOP-92 and in the test with ACHN was > 100 µM (inactive) each time. Moreover, the GI50 in the test with M19-MEL and with NCI-H460 was > 100 µM (inactive) throughout.

For `O=C1Cc2c(-c3ccccc3)cc(-c3cccc(Cl)c3)nc2-c2ccccc2N1`, the GI50 in the test on SW-620 is 3.91 µM (inactive); in the test on UACC-257, 6.32 µM (inactive); in the test on SF-295 it was 3.56 µM (inactive); with SK-MEL-5 it was 9.91 µM (inactive); with A498, 4.82 µM (inactive); in the test on SR, 37.9 µM (inactive). The GI50 in the test with MCF7 is 2.22 µM (inactive); in the test on LOX IMVI, 2.04 µM (inactive); in the test on UO-31 it was 3.14 µM (inactive); in the test on K562, 3.33 µM (inactive); in the test with RPMI-8226 it was 15.7 µM (inactive); in the test on NCI-H226 it was 4.63 µM (inactive). For the same compound, the GI50 with HOP-92 is 1.34 µM (inactive); with NCI-H460, 1.2 µM (inactive).

For `COc1cc(C)cc2c1C(=O)C(NC(C)=O)=CC2=O`, the GI50 with SW-620 is > 100 µM (inactive); in the test with UACC-257, 57.4 µM (inactive); in the test on SF-295 it was > 100 µM (inactive); with SK-MEL-5 it was > 100 µM (inactive); in the test with A498, > 100 µM (inactive); with SR, 55.1 µM (inactive). Also, the GI50 in the test on MCF7 was 67.1 µM (inactive); in the test with UO-31, > 100 µM (inactive); with K562, 43.1 µM (inactive); in the test with RPMI-8226 it was > 100 µM (inactive); with NCI-H226 it was > 100 µM (inactive); in the test with HOP-92 it was 99.8 µM (inactive). Further, the GI50 in the test with ACHN and with NCI-H460 was > 100 µM (inactive) each time.

As to `COc1cc2cc(C(=O)N3CC(CCl)c4c3cc(N(C)C)c3ccccc43)[nH]c2c(OC)c1OC` (centres undefined), the GI50 with SW-620 is 0.0107 µM (active); with UACC-257, 0.0273 µM (active); with SF-295, < 0.01 µM (active); with SK-MEL-5, < 0.01 µM (active); with A498 it was 0.0123 µM (active); with SR, < 0.01 µM (active). Further, the GI50 in the test on MCF7 is < 0.01 µM (active); in the test on LOX IMVI it was < 0.01 µM (active); in the test with UO-31 it was < 0.01 µM (active); in the test on K562, < 0.01 µM (active); with RPMI-8226, 0.0144 µM (active); in the test with NCI-H226 it was 0.0132 µM (active). For the same compound, the GI50 in the test with HOP-92 was 0.0417 µM (active); with ACHN, < 0.01 µM (active); in the test with NCI-H460, < 0.01 µM (active).

For the compound `COP(=O)(OC)C(Cc1cn(C(C)=O)c2ccccc12)C(=O)O` (centres undefined), the GI50 with SW-620, in the test on UACC-257, in the test on SF-295, in the test with SK-MEL-5, in the test on A498 and in the test with SR was > 100 µM (inactive) in each case. The GI50 in the test with MCF7 was 8.26 µM (inactive); with LOX IMVI, > 100 µM (inactive); in the test on UO-31, > 100 µM (inactive); with K562, > 100 µM (inactive); in the test on RPMI-8226, > 100 µM (inactive); in the test on NCI-H226 it was > 100 µM (inactive). The GI50 with HOP-92 was 65.5 µM (inactive); in the test on ACHN, > 100 µM (inactive); in the test on NCI-H460, > 100 µM (inactive).

On to `O=C1C(Cl)=C(N2CCC[C@H]2CO)C(=O)c2c(O)ccc(O)c21`, for which the GI50 with SW-620 is 1.7 µM (inactive); in the test with UACC-257 it was 1.35 µM (inactive); with SF-295, > 10 µM (inactive); in the test on SK-MEL-5 it was 1.73 µM (inactive); in the test on A498 it was > 10 µM (inactive); in the test with SR it was 0.592 µM (active). Besides, the GI50 in the test with MCF7 is 1.81 µM (inactive); in the test on LOX IMVI it was 2.09 µM (inactive); with UO-31 it was 2.24 µM (inactive); in the test with K562 it was 0.425 µM (active); in the test on RPMI-8226, 0.379 µM (active); with NCI-H226 it was > 10 µM (inactive). In addition, the GI50 in the test on HOP-92 was 1.72 µM (inactive); in the test on ACHN, 2.03 µM (inactive); in the test with NCI-H460, 8.63 µM (inactive).

Turning to `CC(=O)OC(C(=O)O)C(OC(C)=O)C(OC(C)=O)C(OC(C)=O)C(=O)O` (centres undefined), the GI50 in the test on SW-620, in the test with UACC-257, with SF-295, with SK-MEL-5, in the test with A498 and with SR was > 100 µM (inactive) in each case. For the same compound, the GI50 with MCF7, with LOX IMVI, with UO-31, in the test on K562, in the test on RPMI-8226 and with NCI-H226 was > 100 µM (inactive) in each case. In addition, the GI50 in the test with HOP-92 and in the test with NCI-H460 was > 100 µM (inactive) each time.

As to `O=c1ccn(CC2(CO)CC(Cc3ccccc3)C2)c(=O)[nH]1` (centres undefined), the GI50 in the test with SW-620, with UACC-257, in the test on SF-295, with SK-MEL-5, with A498 and in the test on SR was > 100 µM (inactive) throughout. For the same compound, the GI50 in the test on MCF7, with LOX IMVI, with UO-31, with K562, in the test with RPMI-8226 and in the test on NCI-H226 was > 100 µM (inactive) in each case. For the same compound, the GI50 in the test with ACHN and in the test on NCI-H460 was > 100 µM (inactive) each time.

On to `Cc1ccc2c(O)cc(-c3cc(C)sc3C)nc2n1`, for which the GI50 is 1.67 µM (inactive) in the test with SW-620; > 37.7 µM (inactive) in the test with UACC-257; 1.94 µM (inactive) in the test on SF-295; 0.708 µM (active) in the test on SK-MEL-5; 4.78 µM (inactive) with A498; 0.55 µM (active) in the test on SR. In addition, the GI50 in the test on MCF7 is 2.18 µM (inactive); in the test on LOX IMVI it was 5.08 µM (inactive); in the test with UO-31, 4.29 µM (inactive); in the test with K562 it was 2.94 µM (inactive); with RPMI-8226, 2.37 µM (inactive); in the test with NCI-H226, 2.38 µM (inactive). Further, the GI50 is 17.9 µM (inactive) with HOP-92, 8.13 µM (inactive) in the test on ACHN and 4.21 µM (inactive) in the test with NCI-H460.

Turning to `Oc1ccccc1-c1nn2c(CCCCCCCCc3nnc4sc(-c5ccccc5O)nn34)nnc2s1`, the GI50 in the test on SW-620 was 27.9 µM (inactive); in the test on UACC-257 it was 20.3 µM (inactive); with SF-295 it was 9.98 µM (inactive); in the test with SK-MEL-5 it was 18.3 µM (inactive); in the test with A498, 14.5 µM (inactive); in the test with SR, 3.93 µM (inactive). Besides, the GI50 in the test on MCF7 is 11.1 µM (inactive); in the test with LOX IMVI, 9.46 µM (inactive); with UO-31 it was 4.11 µM (inactive); with K562, 7.6 µM (inactive); in the test with RPMI-8226 it was 11.1 µM (inactive); in the test on NCI-H226, > 48.9 µM (inactive). Besides, the GI50 with HOP-92 was 19.1 µM (inactive); with ACHN, 12 µM (inactive); in the test on NCI-H460 it was 8.05 µM (inactive).

`[N-]=[N+]=Nc1c(C=O)c(=O)n2c3c(cccc13)CCC2`: the GI50 in the test on SW-620 is 1.39 µM (inactive); in the test with UACC-257, 4.53 µM (inactive); with SF-295, 25.9 µM (inactive); in the test with SK-MEL-5, 13.8 µM (inactive); in the test with A498 it was 13.6 µM (inactive); with SR, 1.1 µM (active). Also, the GI50 with MCF7 is 2.75 µM (inactive); in the test with LOX IMVI, 10.3 µM (inactive); in the test on UO-31, 2.49 µM (inactive); with K562, 2.82 µM (inactive); in the test with RPMI-8226 it was 2.87 µM (inactive); in the test with NCI-H226, 11.9 µM (inactive). Also, the GI50 in the test on HOP-92 was 2.15 µM (inactive); in the test with ACHN, 3.44 µM (inactive); in the test on NCI-H460, 21.2 µM (inactive).

In the case of `COC(=O)C1=C(O)C(C(=O)OC)[C@]2(O)[C@@H](C(=O)OC)[C@H]1C[C@@H](c1ccccc1)[C@@H]2C(=O)OC` (some centres undefined), the GI50 with UACC-257 was 10.3 µM (inactive); in the test on A498 it was 17.2 µM (inactive); with SR it was 4.17 µM (inactive); in the test on MCF7, 5.93 µM (inactive); in the test with LOX IMVI, 15.4 µM (inactive); in the test with UO-31 it was 12.2 µM (inactive). Further, the GI50 is 5.61 µM (inactive) with K562; 9.73 µM (inactive) with RPMI-8226; 18.6 µM (inactive) with NCI-H226; 17.9 µM (inactive) in the test with ACHN; 14 µM (inactive) with NCI-H460.

In the case of `CCCCOP(C)(=O)C(NC(=O)OCC)(C(F)(F)F)C(F)(F)F` (centres undefined), the GI50 in the test on SW-620, in the test with UACC-257, in the test with SF-295, with SK-MEL-5, with A498 and with SR was > 100 µM (inactive) in each case. The GI50 in the test with MCF7, with LOX IMVI, in the test with UO-31, in the test with K562, in the test with RPMI-8226 and in the test on NCI-H226 was > 100 µM (inactive) each time. For the same compound, the GI50 in the test on HOP-92, in the test on ACHN and in the test on NCI-H460 was > 100 µM (inactive) throughout.

In the case of `CCOC(=O)C[C@@H]1C2(C=C[C@@]13CO3)OCC(C)(C)CO2`, the GI50 in the test with SW-620, in the test on UACC-257, in the test with SF-295, in the test on SK-MEL-5, in the test with A498 and in the test on SR was > 100 µM (inactive) throughout. Further, the GI50 in the test with MCF7, in the test on LOX IMVI, in the test on UO-31, in the test with K562, in the test on NCI-H226 and with HOP-92 was > 100 µM (inactive) throughout. Moreover, the GI50 with NCI-H460 is > 100 µM (inactive).

These data come from ChEMBL document CHEMBL1201862, “PubChem BioAssay data set” (2004).
